Results reported in PMC12198282, “Application of a high-density microelectrode array assay using a 3D human iPSC-derived brain microphysiological system model for in vitro neurotoxicity screening of environmental compounds” (Archives of Toxicology, 2025).
Read-outs that look alike come from different tables or passages of the source.

Assays:
2D rat cortical cultures [1] = conditions: cited from earlier work; for AC50: read-out: ac50 CCTE_Shafer_MEA_dev_AB, rNFA mc5; for Cytotoxicity in the resazurin assay of the rNFA (in words): ref Brown et al. [2016], Carstens et al. [2022], Frank et al. [2017b], Shafer et al. [2019], ToxCast invitrodb (v4.2)
2D rat cortical cultures [2] = conditions: cited from earlier work; for AC50: read-out: ac50 CCTE_Shafer_MEA_dev_LDH, rNFA mc5
[3] = test system: human iPSC-derived 3D BrainSpheres; assay: BrainSphere MEA assay (HD-MEA, 13-day exposure, concentration-response); type: cell-based; conditions: for Difference of minimum potency between BrainSphere MEA assay and rNFA: 5th percentile of AC50 values by chemical, above 0.5 = more potent in the rNFA; for AC50: concentration at 50% maximal activity, Supplement 3 prints it also for curves with hit call 0; for Percent active: metrics active out of the total number of metrics screened; for Hits: total number of active endpoints out of 10 MEA activity metrics, 13-day exposure; for EC (benchmark response 1.349 SD): 312 h; for hitc Mean.Spheroid.Burst.Duration: key: 1 (active); 0 (inactive); for hitc Mean.Spheroid.Burst.ISI: key: 1 (active); 0 (inactive); for hitc Mean.Spheroid.Burst.Peak.Firing.Rate: key: 1 (active); 0 (inactive); for hitc Mean.Spheroid.Firing.Rate: key: 1 (active); 0 (inactive); for hitc Mean.Spheroid.IBI: key: 1 (active); 0 (inactive); for hitc Mean.Spheroid.Nonburst.ISI: key: 1 (active); 0 (inactive); for hitc Mean.Spheroid.Spikes.per.Burst.per.Electrode: key: 1 (active); 0 (inactive); for hitc Mean.Spheroid.Spikes.per.Burst: key: 1 (active); 0 (inactive); for hitc Spheroid.Burst.Frequency: key: 1 (active); 0 (inactive); for hitc Spheroid.Spike.Amplitude.90th.Percentile: key: 1 (active); 0 (inactive)
Method in brief: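 Recordings used a 5× RMS spike threshold and 600 s network scans of fixed electrode regions, each region clustered as one BrainSphere. Spheres had 7 weeks of differentiation and 48 h attachment on coated HD-MEA chips before day 0 of the 13-day concentration-response exposure. At least three independent plates were run.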

[4] = AUC over 13-day exposure, tcplfit2
[5] = read-out: ac50 Mean.Spheroid.Burst.Duration
[6] = read-out: ac50 Mean.Spheroid.Burst.ISI
[7] = read-out: ac50 Mean.Spheroid.Firing.Rate
[8] = read-out: ac50 Mean.Spheroid.IBI
[9] = read-out: ac50 Mean.Spheroid.Spikes.per.Burst.per.Electrode
[10] = read-out: ac50 Spheroid.Burst.Frequency
[11] = read-out: ac50 Spheroid.Spike.Amplitude.90th.Percentile
[12] = tcplfit2 BMD at benchmark response (1.349*SD of baseline controls)
[13] = tcplfit2 output ACC, activity cutoff in Supplemental Table 1
[14] = top of winning model, response normalized as percent of vehicle control, negative = decrease

## [CH3][Hg][Cl] [Methylmercury]
2D rat cortical cultures [1]; rNFA mc5 hit call, cytotoxicity AlamarBlue
  hitc CCTE_Shafer_MEA_dev_AB: 1
2D rat cortical cultures [1]; cytotoxicity AlamarBlue
  AC50: 0.283 µM
2D rat cortical cultures [1]
  Cytotoxicity in the resazurin assay of the rNFA (in words): demonstrating cytotoxicity in the rNFA
2D rat cortical cultures [2]; rNFA mc5 hit call, cytotoxicity LDH
  hitc CCTE_Shafer_MEA_dev_LDH: 1
2D rat cortical cultures [2]; cytotoxicity LDH
  AC50: 0.182 µM
[3]; 5th percentile across active AC50 values per chemical, read-out: Minimum potency
  EC50: 2.41 µM
[3]
  Difference of minimum potency between BrainSphere MEA assay and rNFA: more than 0.5 log10 µM
  Percent active: 100%
  Hits: 10
[3]; [4]
  hitc Mean.Spheroid.Burst.Duration: 1
  hitc Mean.Spheroid.Burst.ISI: 1
  hitc Mean.Spheroid.Burst.Peak.Firing.Rate: 1
  hitc Mean.Spheroid.Firing.Rate: 1
  hitc Mean.Spheroid.IBI: 1
  hitc Mean.Spheroid.Nonburst.ISI: 1
  hitc Mean.Spheroid.Spikes.per.Burst: 1
  hitc Mean.Spheroid.Spikes.per.Burst.per.Electrode: 1
  hitc Spheroid.Burst.Frequency: 1
  hitc Spheroid.Spike.Amplitude.90th.Percentile: 1
[3]; DOE 0-13, highest tested concentrations, Fig. 3
  Bioactivity trend over time for MFR, mean spike amplitude and burst frequency (qualitative): appeared to decrease activity
[3]; listed as Methylmercuric(II) chloride, read-out: ac50 Mean.Spheroid.Burst.Duration
  AC50: 5.9 µM
[3]; listed as Methylmercuric(II) chloride, read-out: ac50 Mean.Spheroid.Burst.ISI
  AC50: 3.3 µM
[3]; listed as Methylmercuric(II) chloride, read-out: ac50 Mean.Spheroid.Burst.Peak.Firing.Rate
  AC50: 3 µM
[3]; listed as Methylmercuric(II) chloride, read-out: ac50 Mean.Spheroid.Firing.Rate
  AC50: 7.7 µM
[3]; listed as Methylmercuric(II) chloride, read-out: ac50 Mean.Spheroid.IBI
  AC50: 6.3 µM
[3]; listed as Methylmercuric(II) chloride, read-out: ac50 Mean.Spheroid.Nonburst.ISI
  AC50: 2.6 µM
[3]; listed as Methylmercuric(II) chloride, read-out: ac50 Mean.Spheroid.Spikes.per.Burst
  AC50: 7.9 µM
[3]; listed as Methylmercuric(II) chloride, read-out: ac50 Mean.Spheroid.Spikes.per.Burst.per.Electrode
  AC50: 6.5 µM
[3]; listed as Methylmercuric(II) chloride, read-out: ac50 Spheroid.Burst.Frequency
  AC50: 2.3 µM
[3]; listed as Methylmercuric(II) chloride, read-out: ac50 Spheroid.Spike.Amplitude.90th.Percentile
  AC50: 16 µM
[3]; [5]
  AC50: 5.91 µM
[3]; [6]
  AC50: 3.34 µM
[3]; read-out: ac50 Mean.Spheroid.Burst.Peak.Firing.Rate
  AC50: 3.02 µM
[3]; [7]
  AC50: 7.68 µM
[3]; [8]
  AC50: 6.32 µM
[3]; read-out: ac50 Mean.Spheroid.Nonburst.ISI
  AC50: 2.56 µM
[3]; read-out: ac50 Mean.Spheroid.Spikes.per.Burst
  AC50: 7.9 µM
[3]; [9]
  AC50: 6.46 µM
[3]; [10]
  AC50: 2.29 µM
[3]; [11]
  AC50: 16 µM
[3]; mean across active AC50 values per chemical, read-out: Mean potency
  EC50: 6.15 µM
[3]; [12]
  BMD Mean.Spheroid.Burst.Duration: 5.5 µM
  BMD Mean.Spheroid.Burst.ISI: 2.3 µM
  BMD Mean.Spheroid.Burst.Peak.Firing.Rate: 2.6 µM
  BMD Mean.Spheroid.Firing.Rate: 7.8 µM
  BMD Mean.Spheroid.IBI: 5.9 µM
  BMD Mean.Spheroid.Nonburst.ISI: 1.8 µM
  BMD Mean.Spheroid.Spikes.per.Burst: 7.7 µM
  BMD Mean.Spheroid.Spikes.per.Burst.per.Electrode: 6.2 µM
  BMD Spheroid.Burst.Frequency: 2.4 µM
  BMD Spheroid.Spike.Amplitude.90th.Percentile: 5.1 µM
[3]; [13]
  ACC Mean.Spheroid.Burst.Duration: 5.4 µM
  ACC Mean.Spheroid.Burst.ISI: 1.7 µM
  ACC Mean.Spheroid.Burst.Peak.Firing.Rate: 2.5 µM
  ACC Mean.Spheroid.Firing.Rate: 8.2 µM
  ACC Mean.Spheroid.IBI: 6.3 µM
  ACC Mean.Spheroid.Nonburst.ISI: 2.2 µM
  ACC Mean.Spheroid.Spikes.per.Burst: 8 µM
  ACC Mean.Spheroid.Spikes.per.Burst.per.Electrode: 6.4 µM
  ACC Spheroid.Burst.Frequency: 2 µM
  ACC Spheroid.Spike.Amplitude.90th.Percentile: 10 µM
[3]; [14]
  Top Mean.Spheroid.Burst.Duration: −97
  Top Mean.Spheroid.Burst.ISI: −99
  Top Mean.Spheroid.Burst.Peak.Firing.Rate: −95
  Top Mean.Spheroid.Firing.Rate: −88
  Top Mean.Spheroid.IBI: −94
  Top Mean.Spheroid.Nonburst.ISI: −100
  Top Mean.Spheroid.Spikes.per.Burst: −100
  Top Mean.Spheroid.Spikes.per.Burst.per.Electrode: −95
  Top Spheroid.Burst.Frequency: −100
  Top Spheroid.Spike.Amplitude.90th.Percentile: −21

## ClC1=C(Cl)[C@]2(Cl)[C@@H]3[C@@H]4C[C@@H]([C@H]5O[C@@H]45)[C@@H]3[C@@]1(Cl)C2(Cl)Cl [Dieldrin]
2D rat cortical cultures [1]
  hitc CCTE_Shafer_MEA_dev_AB: 1
  Cytotoxicity in the resazurin assay of the rNFA (in words): demonstrating cytotoxicity in the rNFA
2D rat cortical cultures [1]; cytotoxicity AlamarBlue
  AC50: 22.4 µM
2D rat cortical cultures [2]
  hitc CCTE_Shafer_MEA_dev_LDH: 1
2D rat cortical cultures [2]; cytotoxicity LDH
  AC50: 11.3 µM
[3]
  Difference of minimum potency between BrainSphere MEA assay and rNFA: more than 0.5 log10 µM
  Percent active: 90%
  Hits: 9
[3]; [4]
  hitc Mean.Spheroid.Burst.ISI: 1
  hitc Mean.Spheroid.Burst.Peak.Firing.Rate: 1
  hitc Mean.Spheroid.Firing.Rate: 1
  hitc Mean.Spheroid.IBI: 1
  hitc Mean.Spheroid.Nonburst.ISI: 0
  hitc Mean.Spheroid.Spikes.per.Burst: 1
  hitc Mean.Spheroid.Spikes.per.Burst.per.Electrode: 1
  hitc Spheroid.Burst.Frequency: 1
  hitc Spheroid.Spike.Amplitude.90th.Percentile: 1
[3]; Homo sapiens, 5th percentile across active AC50 values per chemical, read-out: Minimum potency
  EC50: 9.51 µM
[3]; Homo sapiens, tcplfit2 BMD at benchmark response (1.349*SD of baseline controls), read-out: BMD Mean.Spheroid.Burst.ISI
  EC (benchmark response 1.349 SD): 9.9 µM
[3]; Homo sapiens, tcplfit2 BMD at benchmark response (1.349*SD of baseline controls), read-out: BMD Mean.Spheroid.Nonburst.ISI
  EC (benchmark response 1.349 SD): 45 µM
[3]; Homo sapiens, read-out: ac50 Mean.Spheroid.Burst.Duration
  AC50: 13 µM
[3]; Homo sapiens, read-out: ac50 Mean.Spheroid.Burst.ISI
  AC50: 12 µM
[3]; Homo sapiens, read-out: ac50 Mean.Spheroid.Burst.Peak.Firing.Rate
  AC50: 11.7 µM
[3]; Homo sapiens, read-out: ac50 Mean.Spheroid.Firing.Rate
  AC50: 9.5 µM
[3]; Homo sapiens, read-out: ac50 Mean.Spheroid.IBI
  AC50: 28 µM
[3]; Homo sapiens, read-out: ac50 Mean.Spheroid.Nonburst.ISI
  AC50: 45 µM
[3]; Homo sapiens, read-out: ac50 Mean.Spheroid.Spikes.per.Burst
  AC50: 12.3 µM
[3]; Homo sapiens, read-out: ac50 Mean.Spheroid.Spikes.per.Burst.per.Electrode
  AC50: 11 µM
[3]; Homo sapiens, read-out: ac50 Spheroid.Burst.Frequency
  AC50: 9.6 µM
[3]; Homo sapiens, read-out: ac50 Spheroid.Spike.Amplitude.90th.Percentile
  AC50: 21 µM
[3]; Homo sapiens, mean across active AC50 values per chemical, read-out: Mean potency
  EC50: 14.3 µM
[3]; [5]
  AC50: 12.9 µM
[3]; [6]
  AC50: 12.2 µM
[3]; [7]
  AC50: 9.45 µM
[3]; [8]
  AC50: 28.2 µM
[3]; [9]
  AC50: 11.2 µM
[3]; [10]
  AC50: 9.6 µM
[3]; [11]
  AC50: 20.8 µM
[3]; [12]
  BMD Mean.Spheroid.Burst.Peak.Firing.Rate: 9.9 µM
  BMD Mean.Spheroid.Firing.Rate: 9.3 µM
  BMD Mean.Spheroid.IBI: 27 µM
  BMD Mean.Spheroid.Spikes.per.Burst: 11 µM
  BMD Mean.Spheroid.Spikes.per.Burst.per.Electrode: 9.9 µM
  BMD Spheroid.Burst.Frequency: 9.8 µM
  BMD Spheroid.Spike.Amplitude.90th.Percentile: 17 µM
[3]; [13]
  ACC Mean.Spheroid.Burst.ISI: 8.4 µM
  ACC Mean.Spheroid.Burst.Peak.Firing.Rate: 9.6 µM
  ACC Mean.Spheroid.Firing.Rate: 11 µM
  ACC Mean.Spheroid.IBI: 28 µM
  ACC Mean.Spheroid.Nonburst.ISI: 52 µM
  ACC Mean.Spheroid.Spikes.per.Burst: 13 µM
  ACC Mean.Spheroid.Spikes.per.Burst.per.Electrode: 10 µM
  ACC Spheroid.Burst.Frequency: 9.2 µM
  ACC Spheroid.Spike.Amplitude.90th.Percentile: 20 µM
